Source: US20160193179A1, “Treatment of Cardiovascular Risk in Diabetic Patients” (EVOLVA SA, priority 2012, published 2016)

Assays:
Assay type in all cases: cell-based, human
[1] = test system: VCAM-1 and ICAM-1 protein expression in HUVEC; assay: Western blot of VCAM-1 and ICAM-1 protein expression induced by TNFα in HUVEC; settings: TNFα 6 h, western blot normalised by β-actin
Procedure: FIGS. 2B and 2C show the effect of Compound 3 on VCAM-1 and ICAM-1 protein expression induced by TNFα in HUVEC after 6 h of incubation. B) Total protein extracts are recovered and analysed by western blot. β-actin serves as the loading control. C) Quantification of optical density of each band. Results are expressed as the ratio between the optical density of VCAM-1 or ICAM-1 and the optical density of β-actin.
(§1) HUVEC are seeded at 187,500 cells/flask in gelatin-coated T75 in EGM. After 4 days, cell medium is replaced by EBM containing or not containing Compound 3 at different concentrations. After 1 h of preincubation, 1 ng/ml TNFα is added or is not added into the T75 flasks. 6 h after, cell media are collected and centrifuged at 500 g for 5 min to pellet and pool floating cells with adherent cells. Adherent cells are washed twice with cold PBS and are collected in 1.5 ml of PBS. Harvested cells are then centrifuged at 500 g for 5 min at 4° C. […] Protein concentration is measured using Pierce method (Pierce 660 nm protein assay, Thermoscientific, USA) with the Ionic Detergent Compatibility Reagent (Thermoscientific, USA). […] Antibody binding was analysed with the scanner Odyssey Image System (Li-COR, Biosciences, USA) and Odyssey V3.0 software. Optical density of each band is also determined by using the software.

PARP cleavage in HUVEC = assay: PARP-1 cleavage (apoptosis) by western blot in HUVEC
Procedure: FIGS. 3C and 3D show the effect of Compound 3 on PARP cleavage induced by TNFα in HUVEC after 6 h of incubation. C) Total protein extracts are recovered and analysed by western blot. β-actin serves as the loading control. D) Quantification of optical density of each band and expression of the ratio between the optical density of PARP cleavage and the total of PARP.
as §1

[2] = test system: COX-2, IL-6, IL-8, ICAM-1, VCAM-1, PTX3, MCP-1 mRNA expression in HUVEC; assay: Real time RT-PCR of TNFα-induced mRNA expression in HUVEC; settings: for ICAM-1 mRNA expression induced by TNFα / PTX3 mRNA expression induced by TNFα: 1 ng/ml TNFα 6 h
Procedure: FIGS. 1 and 2A show the effects of Compound 3 on mRNA expression of genes of interest encoding inflammatory or oxidative markers. mRNA expression is evaluated by quantitative RT-PCR in HUVEC after 6 h of TNFα stimulation. Data are means±S.D. (n=3). Statistical analysis: one way ANOVA followed by Bonferroni, Versus CTL NS p>0.05, * p<0.05, ** p<0.01, *** p<0.001; Versus TNFα $ p<0.05, $$ p<0.01, $$$ p<0.001.
HUVEC are seeded at 67,500 cells/flask in gelatin-coated T25 in EGM. After 4 days, cell medium is replaced by EBM containing or not containing Compound 3 at different concentrations. After 1 h of preincubation, 1 ng/ml TNFα is added or is not into the T25 flasks. 6 h after, cell medium is discarded and cells are washed twice with PBS. Total RNA extraction is performed by using QIAGEN RNeasy mini Kit according to the protocol provided by the manufacturer (QIAGEN). RNA concentration for each sample is determined by Nanodrop Spectrophotometer ND-100 (ISOGEN, Life Science). Reverse transcription was performed using Transcriptor First Strand cDNA Synthesis Kit Roche (Roche Applied Science). Transcript levels are determined by quantitative reverse transcription polymerase chain reaction (qRT-PCR). cDNA obtained by reverse transcription of total RNA are diluted 100 times and 5 μl are mixed with 12.5 μl of Fast start Universal SYBRGreen Master (Roche), 2.5 μl MilliQ water, 2.5 μl of diluted primer forward and 2.5 μl of diluted primer reverse to have an optimal and final concentration of 300 nM or 900 nM. PCRs are carried out in a real-time PCR cycler (Applied Biosystems 7900HT Fast Real-time PCR System): a hot start at 95° C. for 5 min is followed by 40 cycles at 95° C. for 15 s and 65° C. for 1 min. Samples are compared using the relative cycle threshold (Ct) method. To normalize the load of cDNA for each sample, RPL13 is used as the endogenous standard. Primer sequences are listed below.
List of primers used in real time RT-PCR.

[3] = from 100 nM, not increased at 300 nM and 600 nM

CC(C)(C)N.O=C(O)CC/C=C\C[C@@H]1CO[C@H](c2ccccc2Cl)O[C@@H]1c1ccccc1O [Compound 3, tert-butylammonium (Z)-6-((2S,4S,5R)-2-(2-chlorophenyl)-4-(2-hydroxyphenyl)-1,3-dioxan-5-yl)hex-4-enoate]
ICAM-1 protein expression induced by TNFα [1]: no effect | VCAM-1 protein expression induced by TNFα [1]: no effect | induction of apoptosis (PARP cleavage) by the compound itself (PARP cleavage in HUVEC; HUVEC 6 h, without TNFα): does not induce apoptosis | PARP cleavage induced by TNFα (PARP cleavage in HUVEC; HUVEC, TNFα 6 h, western blot): does not decrease | ICAM-1 mRNA expression induced by TNFα ([2]; 10 nM): no effect | PTX3 mRNA expression induced by TNFα ([2]; 10 nM): no effect | ICAM-1 mRNA expression induced by TNFα [2, 3]: significant decrease | PTX3 mRNA expression induced by TNFα [2, 3]: significant decrease | mRNA expression of all genes of interest (COX-2, IL-6, IL-8, ICAM-1, VCAM-1, PTX3, MCP-1) ([2]; Compound 3 at the highest concentration, without TNFα): no effect
